From US9815851B2, “Pyrrolo carboxamides as modulators of orphan nuclear receptor RAR-related orphan receptor-gamma (RORγ, NR1F3) activity and for the treatment of chronic inflammatory and autoimmune diseases” (PHENEX PHARMACEUTICALS AG, priority 2011, dated 2017)
Read-outs that look alike come from different tables or passages of the source.

Assays:
[1] = target: T1, RORγ ligand binding domain (LBD) (Homo sapiens, UniProt P51449); experiment: TR-FRET Activity Assay (ligand sensing, RORγ-LBD / coactivator peptide interaction, LANCE); assay type: biochemical
T1 construct: made in house; host or cells: E. coli BL-21 (BL3), vector pDEST15
T1 sequence (P51449 269-508 limits assumed): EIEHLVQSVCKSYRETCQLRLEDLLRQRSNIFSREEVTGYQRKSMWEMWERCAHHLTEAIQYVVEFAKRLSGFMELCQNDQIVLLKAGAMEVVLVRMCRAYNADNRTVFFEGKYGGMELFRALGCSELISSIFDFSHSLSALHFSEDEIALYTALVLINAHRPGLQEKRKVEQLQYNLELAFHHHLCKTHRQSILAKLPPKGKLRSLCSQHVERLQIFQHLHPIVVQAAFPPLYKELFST

RORγ = target: T2, RORγ (UniProt P51449); experiment: RORγ Gal4 Reporter Gene Assay in 293T cells (firefly and renilla luciferase); assay type: cell-based, human
T2 sequence (P51449 1-518): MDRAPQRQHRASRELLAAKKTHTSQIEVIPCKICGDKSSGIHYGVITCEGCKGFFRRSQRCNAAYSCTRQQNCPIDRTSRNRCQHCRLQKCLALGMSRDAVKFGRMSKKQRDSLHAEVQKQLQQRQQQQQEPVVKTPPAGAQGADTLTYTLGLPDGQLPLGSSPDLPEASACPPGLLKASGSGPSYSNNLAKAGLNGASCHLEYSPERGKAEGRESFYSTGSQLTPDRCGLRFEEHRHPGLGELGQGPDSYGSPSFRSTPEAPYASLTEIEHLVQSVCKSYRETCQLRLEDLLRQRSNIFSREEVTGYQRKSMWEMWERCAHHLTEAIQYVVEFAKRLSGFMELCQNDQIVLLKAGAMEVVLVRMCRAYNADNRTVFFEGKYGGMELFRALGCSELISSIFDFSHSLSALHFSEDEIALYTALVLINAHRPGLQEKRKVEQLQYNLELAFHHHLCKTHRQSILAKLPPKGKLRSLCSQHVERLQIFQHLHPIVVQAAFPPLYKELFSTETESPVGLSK

[2] = first value of the cell FRET/FF/REN, TR-FRET activity assay, read-out: pIC50 (FRET) (converted)
[3] = second value of the cell, Gal4 reporter gene assay in 293T cells, firefly luciferase
[4] = third value of the cell, Gal4 reporter gene assay in 293T cells, renilla normalised luciferase

| SMILES | IC50 [1] | pIC50 (FF) (RORγ) | pIC50 (REN) (RORγ) | IC50 [1, 2] | pIC50 (FF) (RORγ; [3]) | pIC50 (REN) (RORγ; [4]) |
| --- | --- | --- | --- | --- | --- | --- |
| Cc1c(C(=O)NCCN2CCOCC2)cc(-c2cc(C(C)(C)C)cc(C(C)(C)C)c2)n1CC1CCCCC1 [1/70] | 631 nM | 6.2/6.6/6.6 | 6.2/6.6/6.6 | – | – | – |
| Cc1c(C(=O)NC2CCS(=O)(=O)C2)cc(-c2cc(C(C)(C)C)c3c(c2)C2(CCO3)CC2)n1CC1CCCCC1 (stereo not drawn) [17/15] | – | – | – | 794 nM | 7.2 | 7.1 |
| Cc1c(C(=O)NC2CCOCC2)cc(-c2cnc(S(=O)(=O)NC(C)(C)C)c(C(F)(F)F)c2)n1CC1CCCCC1 [17/190] | – | – | – | 1580 nM | 6.5 | 6.6 |
| Cc1c(C(=O)NCC(C)(C)C(=O)NCCO)cc(-c2cc(C(C)(C)C)c3c(c2)C2(CCO3)CC2)n1CC1CCCCC1 [11/5] | 316 nM | 6.5/7.3/7.4 | 6.5/7.3/7.4 | – | – | – |
| Cc1c(C(=O)N[C@@H]2CCOC2)cc(-c2cc(C(C)(C)C)cc(C3(C)CC3)c2)n1CC1CCCCC1 [17/66] | 158 nM | – | – | – | 7.4 | 7.4 |
| Cc1c(C(=O)NC2CCOCC2)cc(-c2ccc(S(=O)(=O)NC(C)(C)C)c(C(F)(F)F)c2)n1CC1CC(C)C1 (stereo not drawn) [17/177] | – | – | – | 158 nM | 7.3 | 7.4 |
| Cc1c(C(=O)NCCC[S+](C)[O-])cc(-c2cc(C(C)(C)C)c3c(c2)C2(CCO3)CC2)n1CC1CCCCC1 (stereo not drawn) [17/2] | 1000 nM | 6.0/6.6/6.5 | 6.0/6.6/6.5 | – | – | – |
| Cc1c(C(=O)NC2CCOCC2)cc(-c2ccc(S(=O)(=O)NCC(F)(F)F)c(C(F)(F)F)c2)n1CC1CCCCC1 [17/140] | – | – | – | 200 nM | 8.0 | 8.1 |
| Cc1c(C(=O)N[C@H]2C[C@H](C(=O)O)C2)cc(-c2cc(C(C)(C)C)cc(C(C)(C)C)c2OC(F)F)n1CC1CCCCC1 [17/193] | – | – | – | 2510 nM | 6.9 | 7.0 |
| Cc1c(C(=O)NC2CCOCC2)cc(-c2ccc(C(NC(C)(C)C)C(F)(F)F)c(C(F)(F)F)c2)n1CC1CCCCC1 (stereo not drawn) [Example 25] | – | – | – | 1580 nM | 6.3 | 6.2 |
| Cc1c(C(=O)N[C@H]2C[C@H](C(=O)O)C2)cc(-c2cc(C(C)(C)C)cc(C(=O)NC(C)(C)C)c2Cl)n1CC1CCCCC1 [17/368] | – | – | – | 7940 nM | 6.4 | 6.2 |
| Cc1c(C(N)=O)cc(-c2cc(C(C)(C)C)cc(C3(C)CC3)c2)n1CC1CCCCC1 [1/89] | – | – | – | 251 nM | 6.3 | 6.2 |
| Cc1c(C(=O)NC2CCOCC2)cc(-c2ccc(S(=O)(=O)NC(C)(C)C)c(C(C)(C)C)c2)n1CC1CCCCC1 [1/131] | 501 nM | 6.3/7.8/7.8 | 6.3/7.8/7.8 | – | – | – |
| Cc1c(C(=O)NCCC(C)(C)C(N)=O)cc(-c2ccc(S(=O)(=O)NC(C)(C)C)c(C(F)(F)F)c2)n1CC1CCCCC1 [17/135] | – | – | – | 631 nM | 6.7 | 6.7 |
| Cc1c(C(=O)NC2CCOCC2)cc(-c2ccc(S(=O)(=O)NC(C)(C)C)c3c2CCCC3)n1CC1CCCCC1 [17/280] | – | – | – | 1000 nM | 8.1 | 8.1 |
| CC(C)(C)NS(=O)(=O)c1ccc(-c2cc(C(=O)NCCC(C)(C)C(=O)O)c(C(N)=O)n2CC2CCCCC2)cc1C(F)(F)F [17/169] | – | – | – | 794 nM | 6.7 | 6.7 |
| Cc1c(C(=O)NCC(C)(C)NC(=O)CO)cc(-c2cc(C(C)(C)C)c3c(c2)C2(CCO3)CC2)n1CC1CCCCC1 [17/30] | – | – | – | 251 nM | 7.7 | 7.7 |
| Cc1c(C(=O)N2CC(O)C2)cc(-c2cc(C(C)(C)C)cc(C(C)(C)C)c2)n1CC1CCCCC1 [1/7] | – | – | – | 501 nM | 6.8 | 6.8 |
| Cc1c(C(=O)NCC2(S(C)(=O)=O)CCOCC2)cc(-c2cc(C(C)(C)C)c3c(c2)C2(CCO3)CC2)n1CC1CCCCC1 [17/11] | 200 nM | 6.7/7.2/7.2 | 6.7/7.2/7.2 | – | – | – |
| Cc1c(C(=O)NC2CCOCC2)cc(-c2ccc(S(=O)(=O)NC(C)(C)C)c(Cl)c2)n1CC1CCCCC1 [17/234] | – | – | – | 200 nM | 7.1 | 7.2 |
| Cc1c(C(=O)NC2CCOCC2)cc(-c2ccc(S(=O)(=O)NC(C)(C)CCO)c(C(F)(F)F)c2)n1CC1CCCCC1 [17/108] | – | – | – | 1000 nM | 6.9 | 7.1 |

| SMILES | IC50 [1] | pIC50 (FF) (RORγ) | pIC50 (REN) (RORγ) | IC50 [1, 2] | pIC50 (FF) (RORγ; [3]) | pIC50 (REN) (RORγ; [4]) |
| --- | --- | --- | --- | --- | --- | --- |
| Cc1c(C(=O)NC2CCOCC2)cc(-c2cc(C(C)(C)O)cc3ccccc23)n1CC1CCCCC1 [17/185] | 501 nM | 6.3/6.4/6.2 | 6.3/6.4/6.2 | – | – | – |
| Cc1c(C(=O)NC2COC2)cc(-c2cc(OCC(C)(C)C)nc(C(C)(C)C)c2)n1CC1CCCCC1 [1/120] | 126 nM | 6.9/7.1/7.3 | 6.9/7.1/7.3 | – | – | – |
| COC1CN(C(=O)c2cc(-c3cc(C(C)(C)C)cc(C(C)(C)C)c3)n(CC3CCCCC3)c2C)C1 [1/8] | 316 nM | 6.5/6.4/6.3 | 6.5/6.4/6.3 | – | – | – |
| Cc1c(C(=O)NC2CCOCC2)cc(-c2ccc(C(N)=O)c(C(C)(C)C)c2)n1CC1CCCCC1 [6/3] | 7940 nM | 5.1/5.9/5.7 | 5.1/5.9/5.7 | – | – | – |
| Cc1n[nH]cc1-c1ccc(-c2cc(C(=O)NC3CCOCC3)c(C)n2CC2CCCCC2)cc1C(C)(C)C [26/1] | 251 nM | 6.6/7.4/7.5 | 6.6/7.4/7.5 | – | – | – |
| Cc1c(C(=O)NCCCCC(=O)O)cc(-c2cc(C(C)(C)C)cc(C(C)(C)C)c2)n1CC1CCCCC1 [1/73] | – | – | – | 1260 nM | 7.2 | 7.2 |
| Cc1c(C(=O)NC2CCOCC2)cc(-c2ccc(S(=O)(=O)NCC(F)(F)F)c(C(C)(C)C)c2)n1CC1CCCCC1 [17/101] | – | – | – | 794 nM | 7.7 | 7.7 |
| Cc1c(C(=O)NCC(C)(C)C(=O)O)cc(-c2ccc(S(=O)(=O)NC(C)(C)C)c(C(C)(C)C)c2)n1CC1CCCCC1 [1/129] | – | – | – | 1580 nM | 7.3 | 7.3 |
| Cc1c(C(=O)NCC2(C(N)=O)CCOCC2)cc(-c2ccc(S(=O)(=O)NC(C)(C)C)c3ccccc23)n1CC1CCCCC1 [17/267] | – | – | – | 794 nM | 7.9 | 8.0 |
| Cc1c(C(=O)NCC(C)(C)O)cc(-c2cccc3c(S(=O)(=O)NC(C)(C)C)cccc23)n1CC1CCCCC1 [17/76] | – | – | – | 2000 nM | 6.9 | 6.9 |
| Cc1c(C(=O)NCC2(O)CCOCC2)cc(-c2cc(C(C)(C)C)c3c(c2)C(C)(C)C(=O)N3C)n1CC1CCCCC1 [17/48] | – | – | – | 1000 nM | 7.6 | 7.5 |
| Cc1c(C(=O)NC2CCOCC2)cc(-c2ccc(S(=O)(=O)NC3(C)CC3)c(C(C)(C)C)c2)n1CC1CCCCC1 [17/227] | 501 nM | 6.3/8.1/8.1 | 6.3/8.1/8.1 | – | – | – |
| Cc1c(C(=O)NCC2CCOCC2)cc(-c2ccc(S(=O)(=O)NC(C)(C)C)c(C(C)(C)C)c2)n1CC1CCCCC1 [1/10] | 501 nM | 6.3/7.5/7.5 | 6.3/7.5/7.5 | – | – | – |
| Cc1c(C(=O)N[C@H]2C[C@H](C(=O)O)C2)cc(-c2ccc(S(=O)(=O)NC3(C#N)CC3)c(C(F)(F)F)c2)n1CC1CCCCC1 [17/362] | – | – | – | 1260 nM | 5.9 | 5.8 |
| Cc1c(C(=O)NCc2nc(C(=O)O)co2)cc(-c2cc(C(C)(C)C)c3c(c2)C2(CCO3)CC2)n1CC1CCCCC1 [17/16] | – | – | – | 3980 nM | 6.1 | 6.0 |
| Cc1c(C(=O)NCCCCCO)cc(-c2cc(C(C)(C)C)cc(C3(C)CC3)c2)n1CC1CCCCC1 [1/82] | 158 nM | 6.8/7.4/7.4 | 6.8/7.4/7.4 | – | – | – |
| Cc1c(C(=O)NC2CC2)cc(-c2cc(C(C)(C)C)cc(C3(C)CC3)c2)n1CC1CCCCC1 [1/83] | – | – | – | 316 nM | 6.9 | 7.0 |
| CNC(=O)C(C)(C)CNC(=O)c1cc(-c2ccc(S(=O)(=O)NC(C)(C)C)c(C(F)(F)F)c2)n(CC2CCCCC2)c1C [17/204] | – | – | – | 794 nM | 6.7 | 6.8 |
| Cc1c(C(=O)NCCC(C)(C)C(N)=O)cc(-c2cc(C(C)(C)C)cc(C3(C)CC3)c2)n1CC1CCCCC1 [17/74] | 501 nM | 6.3/7.3/7.2 | 6.3/7.3/7.2 | – | – | – |
| Cc1c(C(=O)NC2CS(=O)(=O)C2)cc(-c2cc(C(C)(C)C)cc(C(C)(C)C)c2)n1CC1CCCCC1 [Example 3, 1-(Cyclohexylmethyl)-5-(3,5-di-tert-butylphenyl)-N-(1,1-dioxidothietan-3-yl)-2-methyl-1H-pyrrole-3-carboxamide] | 251 nM | 6.6/7.4/7.4 | 6.6/7.4/7.4 | – | – | – |
